The NIST ThermoML archive (doi:10.1016/j.jct.2013.05.029)
± gives the expanded uncertainty stated by the source.

Assay: refractive index (other wavelength) (dimensionless); xn = mol fraction of the nth substance listed
Details: 101 kPa, Liquid, Wavelength=633 nm, Standard Abbe refractometry

CCCCCCCCCC [decane] + COC(=O)OC
Details	refractive index
280.97 K, x2 = 0.517	1.4023 ± 0.002
280.97 K, x2 = 0.915	1.3807 ± 0.0021
281.95 K, x2 = 0.537	1.4011 ± 0.002
281.95 K, x2 = 0.913	1.3805 ± 0.002
283 K, x2 = 0.549	1.4002 ± 0.002
283 K, x2 = 0.903	1.3808 ± 0.002
284.42 K, x2 = 0.581	1.3983 ± 0.002
284.42 K, x2 = 0.89	1.3811 ± 0.002
285.51 K, x2 = 0.615	1.3964 ± 0.0021
285.51 K, x2 = 0.876	1.3817 ± 0.0021
286.06 K, x2 = 0.63	1.3954 ± 0.0021
286.06 K, x2 = 0.867	1.382 ± 0.002
286.31 K, x2 = 0.641	1.3948 ± 0.002
286.31 K, x2 = 0.859	1.3825 ± 0.002
286.44 K, x2 = 0.65	1.3943 ± 0.002
286.44 K, x2 = 0.855	1.3827 ± 0.002
286.64 K, x2 = 0.663	1.3936 ± 0.0021
286.64 K, x2 = 0.849	1.383 ± 0.002
286.84 K, x2 = 0.671	1.3932 ± 0.0021
286.84 K, x2 = 0.842	1.3834 ± 0.002
286.94 K, x2 = 0.677	1.3928 ± 0.0021
286.94 K, x2 = 0.837	1.3837 ± 0.002
287.03 K, x2 = 0.689	1.3922 ± 0.0021
287.03 K, x2 = 0.831	1.3841 ± 0.0026
287.13 K, x2 = 0.692	1.392 ± 0.0021
287.13 K, x2 = 0.827	1.3843 ± 0.0024
287.21 K, x2 = 0.703	1.3914 ± 0.002
287.21 K, x2 = 0.708	1.3911 ± 0.0021
287.21 K, x2 = 0.819	1.3847 ± 0.0023
287.21 K, x2 = 0.824	1.3844 ± 0.0023
287.23 K, x2 = 0.705	1.3913 ± 0.002
287.23 K, x2 = 0.712	1.3909 ± 0.0021
287.23 K, x2 = 0.815	1.385 ± 0.0022
287.23 K, x2 = 0.82	1.3847 ± 0.0036
287.26 K, x2 = 0.716	1.3907 ± 0.0021
287.26 K, x2 = 0.817	1.3849 ± 0.0021
287.27 K, x2 = 0.712	1.3909 ± 0.0021
287.27 K, x2 = 0.813	1.3851 ± 0.0023
287.28 K, x2 = 0.716	1.3907 ± 0.0021
287.28 K, x2 = 0.817	1.3849 ± 0.0021
287.29 K, x2 = 0.716	1.3907 ± 0.0021
287.29 K, x2 = 0.809	1.3853 ± 0.0021
287.31 K, x2 = 0.72	1.3905 ± 0.0021
287.31 K, x2 = 0.814	1.385 ± 0.0022
287.32 K, x2 = 0.72	1.3905 ± 0.0021
287.32 K, x2 = 0.723	1.3903 ± 0.0021
287.32 K, x2 = 0.729	1.39 ± 0.0022
287.32 K, x2 = 0.804	1.3857 ± 0.0039
287.32 K, x2 = 0.806	1.3855 ± 0.0022
287.32 K, x2 = 0.809	1.3853 ± 0.002
287.35 K, x2 = 0.725	1.3902 ± 0.0021
287.35 K, x2 = 0.731	1.3899 ± 0.0021
287.35 K, x2 = 0.735	1.3896 ± 0.002
287.35 K, x2 = 0.741	1.3893 ± 0.0021
287.35 K, x2 = 0.796	1.3861 ± 0.0021
287.35 K, x2 = 0.799	1.3859 ± 0.002
287.35 K, x2 = 0.803	1.3857 ± 0.0035
287.35 K, x2 = 0.809	1.3853 ± 0.0021
287.36 K, x2 = 0.737	1.3895 ± 0.003
287.36 K, x2 = 0.798	1.386 ± 0.002
287.37 K, x2 = 0.737	1.3895 ± 0.0021
287.37 K, x2 = 0.741	1.3893 ± 0.0021
287.37 K, x2 = 0.79	1.3865 ± 0.0021
287.37 K, x2 = 0.796	1.3861 ± 0.002
